Results as given in patent US20230092648A1, “COMBINATION CONTAINING A DUOCARMYCIN DERIVATIVE-COMPRISING ANTIBODY-DRUG CONJUGATE AND THIOSULFATE” (BYONDIS B.V., priority 2020, published 2023).

Details: formulations up to a concentration of 0.3 M STS; ocular route

O=S(O)(O)=S [STS, sodium thiosulfate]
adverse findings (local tolerance and toxicity): did not show adverse findings
